Five compounds from patent US20100041746A1, “NOVEL USE OF ORGANIC COMPOUNDS” (priority 2006, published 2010) can be followed below.

In one assay the test system is mFABP3. Put plainly: Gene expression in C2C12 muscle cells (TaqMan RT-PCR): mFABP3. The class given is cell-based, mouse. The conditions noted are these: C2C12 cells, 24 h incubation, mRNA. The procedure:
(§1) C2C12 subclone cells were obtained from Dr. Grimaldi, University of Nice, France. C2C12PPd cells were seeded in 24-well-plates with 0.1×106 to 0.15×106 and kept at 37° C. in maintenance medium (DMEM #41965 adjusted to 10% FBS, 2 mM L-Glutamine, 1 mM sodium pyruvate, 100 IU/ml penicillin and 100 μg/ml streptomycin). At 90-95% confluency, cells were washed with 1×PBS and changed to differentiation medium (DMEM #41965 adjusted to 3% FBS, 2 mM Glutamine and 1 mM sodium pyruvate). After 4 days of differentiation, cells were washed with 1×PBS and treated in treatment medium (DMEM #41965 adjusted to 2% BSA, 2 mM Glutamine and 100 IU/ml penicillin and 100 μg/ml streptomycin) with the test compounds. DMSO contents were adjusted to 0.5% final concentration.
(§2) After 24 h incubation with tested compounds, cells were washed with 1×PBS, harvested with 300 μl RLT buffer (Qiagen RNeasy Mini Kit #74106) in QIAshredder (Qiagen 79656) and stored at −20° C.
(§3) Total RNA was extracted using the Qiagen RNeasy Mini Kit, including an in column DNase step (Qiagen #79254) according to the manufacture's protocol. RNA concentration was determined using RiboGreen® RNA quantification assay (Molecular Probes #R11490, Eugene, USA) according to the manufacturer's protocol. 200 ng of the total RNA were subject to first strand cDNA synthesis by reverse transcription using the Omniscript™ RT-kit (Qiagen #205113, Basel, CH) with 10 μM Random Primers (Promega #C1181) according to the manufacturer's instructions. The final volume was adjusted to 400 μl with DEPC-treated water (Ambion, Austin, Tex., USA) and stored at −20° C.
(§4) Quantitative real-time TaqMan RT-PCR, based on the multiplex method, was used to quantify the expression levels of selected genes. In the quantitative TaqMan RT-PCR, 5 μl of the diluted cDNA was added to 20 μl of the reaction mixture, consisting of 12.5 μl TaqMan 2× Master Mix (PE biosystems, Rotkreuz, CH), 300 nM PCR primers (forward and reverse), and 100 nM TaqMan probe for the gene of interest. The reference gene used was 18S rRNA, with primers and probes at 50 nM and 100 nM, respectively. Probes for the gene of interest were labeled with FAM on the 5′ end and with Tamra on the 3′ end. The 18S rRNA probe was labeled with VIC on the 5′ end and with Tamra on the 3′ end. Amplification was performed using an Abi-Prism 7700 Sequence Detector (PE Biosystems, Foster City, Calif., USA) in MicroAmp Optical 96-well reaction plates (PE Biosystems, Foster City, Calif., USA). The PCR amplification program consisted of 2 min at 50° C., 10 min at 95° C., and 40 cycles of 15 sec at 95° C. and 60 sec at 60° C. Threshold CT values were set at 0.05. The baseline start and stop values for the gene of interest were set at 3 and 15, respectively, and for the reference gene (18S rRNA) at 3 and 7, respectively. mRNA abundance was determined using the ΔCT method according to the manufacturer's protocol. Briefly, the ΔCT for the gene of interest was determined as the difference between the CT values for the reference gene and the gene of interest. Then, ΔΔCT was determined as the difference in dCT between the untreated control group and each of the treated groups. The fold induction for the gene of interest (i.e. the amount of mRNA for the gene of interest, normalized to an endogenous reference and relative to a calibrator) was determined as 2-ΔΔCT In graphs data is presented as a percentage.
(§5) Genes in involved in fatty acid β-oxidation and lipid metabolism were checked using real-time RT-PCR.
For orientation: In qPCR the cycle at which signal appears reflects the starting amount.
On to `COc1cc(C=CC(=O)NC(=O)c2ccccc2O)cc(OC)c1OC` [Compound 2], for which the “mFABP3 fold of induction compared to DMSO control” value (“mFABP3 fold of induction” for short) was found to be 1.63 fold.

For `COc1ccc(C(=O)C=Cc2ccc(OC)cc2OC)cc1` [Compound 8, 3-(2,4-dimethoxyphenyl)-1-(4-methoxyphenyl)-2-propen-1-one], the “mFABP3 fold of induction” value is 3.36 fold.

With `O=C(C=Cc1ccc(O)c(O)c1)NC(=O)c1ccccc1O` [Compound 1, N-[3-(3,4-dihydroxyphenyl)-1-oxo-2-propenyl]-2-hydroxybenzamide], the “mFABP3 fold of induction” value was determined as 1.35 fold.

On to `COc1ccc(C=C2Oc3cc(O)ccc3C2=O)cc1` [Compound 7], for which the “mFABP3 fold of induction” value came to 2.16 fold.

A further assay deals with mLPL. Nature of the assay: Gene expression in C2C12 muscle cells (TaqMan RT-PCR): mLPL. The class given is cell-based, mouse. The conditions noted are these: C2C12 cells, 24 h incubation, mRNA. The procedure: as §1, §2, §3, §4, §5
On to `COc1cc(C=CC(=O)NC(=O)c2ccccc2O)cc(OC)c1OC` [Compound 2], for which the “mLPL fold of induction compared to DMSO control” value (“mLPL fold of induction” for short) came to 1.91 fold.

Consider `COc1ccc(C(=O)C=Cc2ccc(OC)cc2OC)cc1` [Compound 8, 3-(2,4-dimethoxyphenyl)-1-(4-methoxyphenyl)-2-propen-1-one], for which the “mLPL fold of induction” value came out at 1.88 fold.

Consider `O=C(C=Cc1ccc(O)c(O)c1)NC(=O)c1ccccc1O` [Compound 1, N-[3-(3,4-dihydroxyphenyl)-1-oxo-2-propenyl]-2-hydroxybenzamide], for which the “mLPL fold of induction” value is on record as 1.11 fold.

On to `COc1ccc(C=C2Oc3cc(O)ccc3C2=O)cc1` [Compound 7], for which the “mLPL fold of induction” value is on record as 1.06 fold.

The next assay deals with mCD36. Put plainly: Gene expression in C2C12 muscle cells (TaqMan RT-PCR): mCD36. The class given is cell-based, mouse. The conditions noted are these: C2C12 cells, 24 h incubation, mRNA. The protocol: as §1, §2, §3, §4, §5
With `COc1cc(C=CC(=O)NC(=O)c2ccccc2O)cc(OC)c1OC` [Compound 2], the “mCD36 fold of induction compared to DMSO control” value (shortened to “mCD36 fold of induction”) came out at 3.2 fold.

For `COc1ccc(C(=O)C=Cc2ccc(OC)cc2OC)cc1` [Compound 8, 3-(2,4-dimethoxyphenyl)-1-(4-methoxyphenyl)-2-propen-1-one], the “mCD36 fold of induction” value stood at 9.49 fold.

As to `O=C(C=Cc1ccc(O)c(O)c1)NC(=O)c1ccccc1O` [Compound 1, N-[3-(3,4-dihydroxyphenyl)-1-oxo-2-propenyl]-2-hydroxybenzamide], the “mCD36 fold of induction” value stood at 2.93 fold.

Regarding `COc1ccc(C=C2Oc3cc(O)ccc3C2=O)cc1` [Compound 7], the “mCD36 fold of induction” value is given as 2.95 fold.

The test system of another assay is mACO1. Nature of the assay: Gene expression in C2C12 muscle cells (TaqMan RT-PCR): mACO1. It counts as cell-based, mouse. The conditions noted are these: 24 h incubation, mRNA. The protocol: as §1, §2, §3, §4, §5
Regarding `COc1cc(C=CC(=O)NC(=O)c2ccccc2O)cc(OC)c1OC` [Compound 2], the “mACO1 fold of induction compared to DMSO control” value (“mACO1 fold of induction” for short) turned out to be 1.81 fold.

With `COc1ccc(C(=O)C=Cc2ccc(OC)cc2OC)cc1` [Compound 8, 3-(2,4-dimethoxyphenyl)-1-(4-methoxyphenyl)-2-propen-1-one], the “mACO1 fold of induction” value is on record as 1.15 fold.

`O=C(C=Cc1ccc(O)c(O)c1)NC(=O)c1ccccc1O` [Compound 1, N-[3-(3,4-dihydroxyphenyl)-1-oxo-2-propenyl]-2-hydroxybenzamide]: the “mACO1 fold of induction” value came out at 1.98 fold.

For the compound `COc1ccc(C=C2Oc3cc(O)ccc3C2=O)cc1` [Compound 7], the “mACO1 fold of induction” value is on record as 1.03 fold.

Another assay relates to C57B1/6J mice. Nature of the assay: Running performance, body composition and muscle weight of high-fat-diet mice supplemented for 9 weeks. The class given is in vivo, mouse. The conditions noted are these: compared to control group; treadmill. The procedure:
20 male C57B1/6J mice were obtained from Jackson Laboratory (Bar Harbor, Me., USA) at the age of 5 weeks. All mice were administered a high-fat diet (Kliba#2154, Provimi Kliba AG, Kaiseraugst, Switzerland) for 8 weeks to induce obesity. Thereafter, the mice were randomly assigned into two groups:
The duration of the supplementation was 9 weeks. During this period all mice received food and water ad libitum. At the end of the supplementation period, maximal running performance on a rodent treadmill (Technical & Scientific Equipment GmbH, Bad Homburg, Germany) was determined. Body composition was measured by quantitative magnetic resonance (Minispec MQ10, Bruker Optics GmbH, Faellanden, Switzerland) in conscious animals. At the end of the study, the animals were killed, blood was taken and the gastrocnemius-plantaris-soleus muscle group was excised and weighted.
In the case of `COc1ccc(-c2coc3cc(OC)ccc3c2=O)cc1` [4′,7-Dimethoxyisoflavone, 4′,7-dimethoxyisoflavone], the “Increase of maximal running distance” value was determined as 6%.

Still in this assay, the particulars now being: compared to mice in the control group.
Regarding `COc1ccc(-c2coc3cc(OC)ccc3c2=O)cc1` [4′,7-Dimethoxyisoflavone, 4′,7-dimethoxyisoflavone], the “Effect on body weight (in words)” value is “decreased”, the “Effect on gastrocnemius-plantaris-soleus weight relative to body weight (in words)” value is recorded as “increased”, the “Effect on percentage of body fat mass (in words)” value is “decreased” and the “Effect on percentage of lean body mass (in words)” value was “increased”.

Still in this assay, the particulars now being: mice, high-fat diet supplemented with 0.03% w/w, 9 weeks.
Turning to `COc1ccc(-c2coc3cc(OC)ccc3c2=O)cc1` [4′,7-Dimethoxyisoflavone, 4′,7-dimethoxyisoflavone], the Body weight is reported as 30.5 g and the Gastrocnemius-plantaris-soleus weight is recorded as 6.74 mg/g body weight.

Still in this assay, the particulars now being: mice, high-fat diet supplemented with 0.03% w/w, 9 weeks; quantitative magnetic resonance.
`COc1ccc(-c2coc3cc(OC)ccc3c2=O)cc1` [4′,7-Dimethoxyisoflavone, 4′,7-dimethoxyisoflavone]: the Body fat mass was 15.6 % of body weight and the Lean body mass is listed as 75.0 % of body weight.

Staying with this assay, now noted: mice, high-fat diet supplemented with 0.03% w/w, 9 weeks; rodent treadmill.
Consider `COc1ccc(-c2coc3cc(OC)ccc3c2=O)cc1` [4′,7-Dimethoxyisoflavone, 4′,7-dimethoxyisoflavone], for which the Maximal running distance was 2201 m.

A further assay relates to mUCP2. Nature of the assay: Gene expression in C2C12 muscle cells (TaqMan RT-PCR): mUCP2. The class given is cell-based, mouse. The conditions noted are these: 24 h incubation, mRNA. The procedure: as §1, §2, §3, §4, §5
Turning to `COc1cc(C=CC(=O)NC(=O)c2ccccc2O)cc(OC)c1OC` [Compound 2], the “mUCP2 fold of induction compared to DMSO control” value (“mUCP2 fold of induction” below) worked out at 3.27 fold.

For the compound `COc1ccc(C(=O)C=Cc2ccc(OC)cc2OC)cc1` [Compound 8, 3-(2,4-dimethoxyphenyl)-1-(4-methoxyphenyl)-2-propen-1-one], the “mUCP2 fold of induction” value was determined as 4.68 fold.

As for `O=C(C=Cc1ccc(O)c(O)c1)NC(=O)c1ccccc1O` [Compound 1, N-[3-(3,4-dihydroxyphenyl)-1-oxo-2-propenyl]-2-hydroxybenzamide], the “mUCP2 fold of induction” value amounted to 2.46 fold.

Regarding `COc1ccc(C=C2Oc3cc(O)ccc3C2=O)cc1` [Compound 7], the “mUCP2 fold of induction” value turned out to be 2.33 fold.

The test system of the next assay is mCPT1b. Nature of the assay: Gene expression in C2C12 muscle cells (TaqMan RT-PCR): mCPT1b. It counts as cell-based, mouse. The conditions noted are these: C2C12 cells, 24 h incubation, mRNA. The protocol: as §1, §2, §3, §4, §5
As to `COc1cc(C=CC(=O)NC(=O)c2ccccc2O)cc(OC)c1OC` [Compound 2], the “mCPT1b fold of induction compared to DMSO control” value (shortened to “mCPT1b fold of induction”) came out at 1.05 fold.

Turning to `COc1ccc(C(=O)C=Cc2ccc(OC)cc2OC)cc1` [Compound 8, 3-(2,4-dimethoxyphenyl)-1-(4-methoxyphenyl)-2-propen-1-one], the “mCPT1b fold of induction” value was 1.29 fold.

For `O=C(C=Cc1ccc(O)c(O)c1)NC(=O)c1ccccc1O` [Compound 1, N-[3-(3,4-dihydroxyphenyl)-1-oxo-2-propenyl]-2-hydroxybenzamide], the “mCPT1b fold of induction” value came out at 1.33 fold.

For `COc1ccc(C=C2Oc3cc(O)ccc3C2=O)cc1` [Compound 7], the “mCPT1b fold of induction” value is 1.12 fold.
